Results reported in patent publication US12377112B2, “Methods of treating neurocognitive disorders, chronic pain and reducing inflammation” (priority 2019, dated 2025).

How the values were obtained:
patients = settings: human, in vivo; cited from earlier work
[1] = test system: children aged 7 to 14 years old with ADHD; settings: 6-week trial, children aged 7 to 14 years with ADHD; cited from earlier work
male CD1 mice = assay: Pentylenetetrazol (PTZ) infusion seizure threshold; format: in vivo, mouse; settings: 10 mg/kg
From the text: Administration of chemical convulsant agents such as Pentylenetetrazol (PTZ) are used to mimic behavioral aspects of human epilepsy. PTZ causes myoclonic jerking movements, clonic convulsions or forelimb/hindlimb tonic extension in rodents. The PTZ model is primarily used to evaluate anti-convulsant properties of antiepileptic drugs (AED's) by identifying compounds which raise seizure threshold but can also be used to identify pro-convulsant agents that lower seizure threshold. PTZ is a well-established model for acute and repetitive seizures, and is accepted for use for screening AED action. PTZ induces myoclonic and generalized tonic-clonic seizures.
Male CD1 mice (age 6-8 weeks, weight 30.0-42.9 g, source: Charles River UK) were used in this study. […] During this time-infusion, mice were individually assessed for the onset of myoclonic, forelimb tonus and hindlimb tonus seizures. The latencies (in seconds) from start of infusion to the appearance of first myoclonus, forelimb tonic and hind limb tonic extension were recorded. […] For animals reaching this cut off, the dose of PTZ in mg/kg infused over the 120 s was calculated as the threshold dose. […]
Data was analysed using one way ANOVA in which the dose of PTZ required to induce seizure was compared between each treatment groups and vehicle. […]

CNCC[C@@H](Oc1ccccc1C)c1ccccc1 [Atomoxetine, atomoxetine]
Decreased appetite, % of patients (patients): 15-20%

NC(=O)C[S+]([O-])C(c1ccccc1)c1ccccc1 (stereo not drawn) [modafinil]
Response rate compared to placebo [1]: 78%

CN1C(=O)CN=C(c2ccccc2)c2cc(Cl)ccc21 [Diazepam, diazepam]
Dose of PTZ required to induce myoclonic, forelimb and hindlimb tonic seizures (male CD1 mice): significantly increased
